From US3982931A, “N,N-di-sec.butyl-benzamide herbicides” (priority 1967, dated 1976)

What was measured:
Experiment in all cases: herbicidal activity, soil treatment one day after sowing
Type in all cases: in vivo
Settings in all cases: 6 kg/ha
[1] = system: amaranthus retroflexus L.
From the text: (§1) The infesting species and the agrarian species have been indicated in Table 1 by letters, as follows:
A = amaranthus retroflexus L.
(§2) Method of evaluation of the results (of tests):
(§3) 1 slight differences with respect to the control;
(§4) 3 = considerable activity with damages that definitely impair the further development of most of the small plants; an activity degree already useful for practical purposes;
(§5) 4 = maximum of activity with lack of germination or total containment of the small plants in the emerging stage.
(§6) In the case of an intermediate activity between two classes of the scale, both values are recorded with the one which corresponds to the preeminent activity preceding.
(§7) TABLE 2 reports the activity data of other compounds that fall within the class which is the object of this invention.
(§8) TABLE 3 reports data on the herbicidal activity against infesting herbs, while TABLE 4 reports data concerning the activity on useful species of agricultural cultivations. These tables employ the criterion explained previously. […]

artemisia vulgaris L. = system: artemisia vulgaris L.
From the text: as §1
B = artemisia vulgaris L.
as §2, §3, §4, §5, §6, §7, §8

chenopodium album L. = system: chenopodium album L.
From the text: as §1, §2, §3, §4, §5, §6, §7, §8

[2] = system: echinocloa crus-galli R.S.
From the text: as §1
D = echinocloa crus-galli R.S.
as §2, §3, §4, §5, §6, §7, §8

setaria glauca L. = system: setaria glauca L.
From the text: as §1, §2, §3, §4, §5
In the case of an intermediate activity between two classes of the scale, both values are recorded with the one which corresponds to the preeminent activity preceding. […]
as §8

vicia sativa L. = system: vicia sativa L.
From the text: as §1, §2, §3, §4, §5, §6, §7

Structure (SMILES)	activity on A, 0-4 scale [1]	activity on B, 0-4 scale (artemisia vulgaris L.)	activity on C, 0-4 scale (chenopodium album L.)	activity on D, 0-4 scale [2]	activity on E, 0-4 scale (setaria glauca L.)	activity on F, 0-4 scale (vicia sativa L.)
CCC(C)N(C(=O)c1ccc(F)c(Br)c1)C(C)CC (stereo not drawn) [PA518, 3-bromo,4-fluoro-N,N-di-sec.butyl-benzamide]	2	3	3	3-4	4	0
CC(C)CN(CC(C)C)C(=O)c1cccc(Br)c1 [PA521, 3-bromo-N,N-di-isobutyl-benzamide, reference compound]	1	1	1	1-2	1-2	0
CCCCN(C(=O)c1cccc(Br)c1)C(C)CC (stereo not drawn) [PA525, 3-bromo-N,n.butyl-N-sec.butyl-benzamide]	1-2	0-1	1	3	3-4	0
O=C(O)c1cccc(Br)c1 [PA577, 3,bromo-benzoic acid, reference compound]	0	0	0	0	0	0
CCC(C)N(C(=O)c1ccc(Br)c(I)c1)C(C)CC (stereo not drawn) [PA619, 3-iodo,4-bromo-N,N-di-sec.butyl-benzamide]	0-1	0	0-1	3	3	0
CCC(C)N(C(=O)c1cc(Cl)c(Cl)c(Cl)c1)C(C)CC (stereo not drawn) [PA621, 3,4,5-trichloro-N,N-di-sec.butyl-benzamide]	2	2	2	4	4	0
CCC(C)N(C(=O)c1cc(Cl)cc(Br)c1)C(C)CC (stereo not drawn) [PA626, 3-bromo,5-chloro-N,N-di-sec.butyl-benzamide]	1-2	0-1	0-1	3-4	4	0
CCC(C)N(C(=O)c1c(Cl)cc(Cl)cc1Cl)C(C)CC (stereo not drawn) [PA633, 2,4,6-trichloro-N,N-di-sec.butyl-benzamide]	2	2-3	2-3	4	4	0
CCCC(C)N(C(=O)c1ccc(Cl)c(Cl)c1)C(C)CC (stereo not drawn) [PA634, 3,4-dichloro-N-sec.amyl,N-sec.butyl-benzamide]	2	2	1-2	3	3-4	0
